# From PMC5102573 (Clinical Pharmacology and Therapeutics, 2016)
# Where “and” joins values, the source holds several entries; their conditions need not be identical. Equal values may be shown once. Where a name gives a salt, the structure may show the parent alone. Read-outs that look alike come from different tables or passages of the source.
# Tests used:
# [1] = Urinary excretion
# [2] = rosuvastatin 10 mg q.d. with metformin 750 mg q.d.; cited from earlier work
# [3] = 5 mg rosuvastatin and 600 mg rifampin; cited from earlier work
# [4] = cocktail T1 vs alone, geometric mean ratio
# [5] = cocktail T2 vs alone, geometric mean ratio
# [6] = cocktail T3 vs alone, geometric mean ratio
structure (smiles),measurement,setting,value
"C[C@H]1O[C@@H](O[C@H]2[C@@H](O)C[C@H](O[C@H]3[C@@H](O)C[C@H](O[C@H]4CC[C@@]5(C)[C@H](CC[C@@H]6[C@@H]5C[C@@H](O)[C@]5(C)[C@@H](C7=CC(=O)OC7)CC[C@]65O)C4)O[C@@H]3C)O[C@@H]2C)C[C@H](O)[C@@H]1O [Digoxin, digoxin]","urinary excretion parameters fe0-36 and CLR,0-36 between the treatments",[1]; alone vs cocktails,comparable
same,"AUC0-tz decrease, cocktail T3 vs cocktail T1",T3 vs T1,22.6%
same,"Cmax decrease, cocktail T3 vs cocktail T1",T3 vs T1,12.2%
same,median tmax,after all treatments (alone and cocktails),1.0 h
same,AUC0-tz decrease in cocktail vs drug alone,cocktail T3 vs alone (R),17%
same,Cmax decrease in cocktail vs drug alone,cocktail T3 vs alone (R),11.4% and 11%
"CN(C)C(=N)N=C(N)N [Metformin, metformin hydrochloride]","CLR,0-24 decrease in cocktails vs drug alone",[1]; cocktails T1 and T3 vs alone,10–18%
same,fe0-36 decrease in cocktails vs drug alone,[1]; cocktails T1 and T3 vs alone,10–18%
"CC(C)c1nc(N(C)S(C)(=O)=O)nc(-c2ccc(F)cc2)c1/C=C/[C@@H](O)C[C@@H](O)CC(=O)O [Rosuvastatin, rosuvastatin]",effect of metformin on AUCτ,[2],did not alter
same,"increase of geometric mean Cmax,ss caused by metformin",[2],23%
same,increase of plasma AUC0-24 with rifampin,[3],5.2 fold
same,increase of plasma Cmax with rifampin,[3],9.9 fold
same,"CLR,0-36 in the different treatment periods",[1]; alone vs cocktails,comparable
same,"fe0-36, gMean",[1]; analyte given in Test Cocktail 1,7.93%
same,"fe0-36, gMean","[1]; drug given alone, fraction excreted in urine 0-36 h",5.45%
same,"fe0-36 in cocktails T1, T2, and T3 compared to drug alone",[1]; in vivo,higher
same,AUC0-tz increase (higher) in cocktail vs drug alone,[4],43.4% and 43%
same,AUC0-∞ increase in cocktail vs drug alone,[4],27.8%
same,Cmax increase (higher) in cocktail vs drug alone,[4],38.6% and 39%
same,AUC0-tz increase in cocktail vs drug alone,[5],50.9%
same,AUC0-∞ increase in cocktail vs drug alone,[5],37.4%
same,Cmax increase in cocktail vs drug alone,[5],37.9%
same,AUC0-tz increase in cocktail vs drug alone,[6],45.6%
same,AUC0-∞ increase in cocktail vs drug alone,[6],23.3%
same,Cmax increase in cocktail vs drug alone,[6],40.1%
same,"AUC0-tz, Ratio T/R (relative bioavailability)",test cocktail T1 vs drug alone,143.39%
same,"AUC0-∞, Ratio T/R (relative bioavailability)",test cocktail T1 vs drug alone,127.83%
same,"Cmax, Ratio T/R (relative bioavailability)",test cocktail T1 vs drug alone,138.57%
same,"AUC0-tz, Ratio T/R (relative bioavailability)",test cocktail T2 vs drug alone,150.87%
same,"AUC0-∞, Ratio T/R (relative bioavailability)",test cocktail T2 vs drug alone,137.43%
same,"Cmax, Ratio T/R (relative bioavailability)",test cocktail T2 vs drug alone,137.93%
same,"AUC0-tz, Ratio T/R (relative bioavailability)",test cocktail T3 vs drug alone,145.61%
same,"AUC0-∞, Ratio T/R (relative bioavailability)",test cocktail T3 vs drug alone,123.25%
same,"Cmax, Ratio T/R (relative bioavailability)",test cocktail T3 vs drug alone,140.05%
